Measurements as given in patent US20210379056A1, “SUBSTITUTED PYRAZOLE FUSED RING DERIVATIVE, PREPARATION METHOD THEREFOR, AND APPLICATION THEREOF” (Applied Pharmaceutical Science, Inc., priority 2018, published 2021).

What was measured:
Ret wt = molecular target: T1, Ret wt (Homo sapiens, UniProt P07949); assay: HTRF kinase activity test, RET wild type; assay type: biochemical; details: Table 3; read-out: RET Enzyme (wild type) IC50
T1 construct: purchased Invitrogen PV3082
Description: This test combined peptide substrates and a single proprietary monoclonal antibody with HTRF technology, which was a highly sensitive and stable technology for detecting molecular interactions of proteins. The enzyme phosphorylates the substrate, then the Eu-labeled antibody binds to the phosphorylated substrate, and streptavidin-XL665 binds to all substrates. The TR-FRET signal was generated by the HTRF principle. […] Based on this, the inhibitory effect was evaluated.
(§1) The other compounds were diluted 3-fold gradiently with DMSO from the 10 mM stock solution to a total of 10 concentrations respectively.
(§2) Adding 4 volumes of distilled water to 1 volume of enzyme buffer 5×; 5 mM MgCl2; 1 mM DTT.
(§3) b) centrifuging the compound plate for 1 minute at 1000 g.
(§4) c) sealing the test board.
(§5) f) adding 4 μl of 1× kinase buffer to each well of the test plate, centrifuging the sample plate at 1000 g for 30 seconds, and placing it at room temperature for 10 minutes.
(§6) g) preparing a solution of 5× TK-substrate-biotin ([…]) in kinase buffer and 5×ATP (50 μM) in kinase buffer respectively.
(§7) h) starting the reaction by adding 2 μl STK-substrate-biotin and 2 μl ATP (prepared in the step g).
(§8) i) centrifuging the sample plate for 30 seconds at 1000 g. Sealing the test board and placing it at room temperature for 30 minutes.
(§9) ) centrifuging at 1000 g for 30 seconds and placing it at room temperature for 1 hour.
(§10) The inhibition rate % was calculated as follows:
(§11) Inhibition rate %=[1−(fluorescence signal value of test compound−fluorescence signal value of positive control)/(average ratio of negative control−average ratio of positive control)]*100%
(§12) Ratio: generated from the measured fluorescence signal value
(§13) The average ratio of the positive control is the average ratio of the positive control (200 nM AT13148) in the sample plate;
(§14) The average ratio of negative controls is the average ratio of negative controls (0.1% DMSO) in the sample plate.
(§15) GraphPad 6.0 was used to fit the logarithm of the % inhibition rate and the compound concentration into a nonlinear regression (dose response−variable slope) to calculate the IC50 value.

TT Cell = assay: Cell inhibitory activity test (CCK8); assay type: cell-based; details: Table 3, 72 hours incubation
Description: Cell Inhibitory Activity Test
1. preparing 90 μl of cell suspension in a 96-well plate with 4000 cells/well. Pre-incubating the culture plate in an incubator for 24 hours (37° C., 5% CO2).
2. adding 10 μl of test compounds of different concentrations to each well of cells, and each compound has multiple wells.
3. incubating the culture plate in the incubator for 72 hours.
4. adding 10 μl of CCK8 solution to each well (be careful not to generate bubbles in the well, otherwise they would affect the reading of the OD value).
5. incubating the culture plate in the incubator for 1-2 hours.
6. measuring the absorbance at 450 nm with a microplate reader.
7. according to the compound concentration and absorbance value, GraphpadPrism software was used to calculate the IC50 of each compound.

[1] = system: RET wild-type, mutant and/or fusion-type; assay: Overall statement on RET inhibitory activity (summary of Table 3); details: statement in words summarising Table 3
Description: As shown in the above table, the example compounds of the present disclosure have improved inhibitory activity against RET wild-type, mutant and/or fusion-type.

RET (V804M) = molecular target: T2, RET (V804M) (Homo sapiens, UniProt P07949, V804M); assay: HTRF kinase activity test, RET V804M; assay type: biochemical; details: Table 3; read-out: RET Enzyme (V804M) IC50
T2 construct: purchased Signalchem R02-12GG
Description: This test combined peptide substrates and a single proprietary monoclonal antibody with HTRF technology, which was a highly sensitive and stable technology for detecting molecular interactions of proteins. The enzyme phosphorylates the substrate, then the Eu-labeled antibody binds to the phosphorylated substrate, and streptavidin-XL665 binds to all substrates. The TR-FRET signal was generated by the HTRF principle. Once the inhibitor (test compound) was added, a weaker TR-FRET signal is obtained. Based on this, the inhibitory effect was evaluated.
as §1, §2
a) Transferring 10 nl of the compound dilution (prepared in 5.2) to each well of the test plate (784075, Greiner);
as §3, §4
d) preparing 5×Ret wt (0.2 ng/μl) and 5×Ret V804L (0.5 ng/μl)/5×Ret V804M (0.5 ng/μl) in 1× kinase buffer respectively.
e) adding 2 μl of 5×Ret wt or 2 μl of Ret V804L/RET V804M to a 384-well test plate (784075, Greiner).
as §5, §6, §7, §8
j) preparing 4×Sa-XL 665 (250 nM) in HTRF detection buffer.
k) adding 5 μl of Sa-XL 665 and 5 μl of TK-antibody-Cryptate (prepared in the step i) to each well of the test plate.
as §9
m) reading the fluorescence signal values at 615 nm (Cryptate) and 665 nm (XL665) on the Envision 2104 plate reader.
Calculating the ratio of each hole (665 nm/615 nm).
as §10, §11, §12, §13, §14, §15

T1 sequence (P07949 29-1114): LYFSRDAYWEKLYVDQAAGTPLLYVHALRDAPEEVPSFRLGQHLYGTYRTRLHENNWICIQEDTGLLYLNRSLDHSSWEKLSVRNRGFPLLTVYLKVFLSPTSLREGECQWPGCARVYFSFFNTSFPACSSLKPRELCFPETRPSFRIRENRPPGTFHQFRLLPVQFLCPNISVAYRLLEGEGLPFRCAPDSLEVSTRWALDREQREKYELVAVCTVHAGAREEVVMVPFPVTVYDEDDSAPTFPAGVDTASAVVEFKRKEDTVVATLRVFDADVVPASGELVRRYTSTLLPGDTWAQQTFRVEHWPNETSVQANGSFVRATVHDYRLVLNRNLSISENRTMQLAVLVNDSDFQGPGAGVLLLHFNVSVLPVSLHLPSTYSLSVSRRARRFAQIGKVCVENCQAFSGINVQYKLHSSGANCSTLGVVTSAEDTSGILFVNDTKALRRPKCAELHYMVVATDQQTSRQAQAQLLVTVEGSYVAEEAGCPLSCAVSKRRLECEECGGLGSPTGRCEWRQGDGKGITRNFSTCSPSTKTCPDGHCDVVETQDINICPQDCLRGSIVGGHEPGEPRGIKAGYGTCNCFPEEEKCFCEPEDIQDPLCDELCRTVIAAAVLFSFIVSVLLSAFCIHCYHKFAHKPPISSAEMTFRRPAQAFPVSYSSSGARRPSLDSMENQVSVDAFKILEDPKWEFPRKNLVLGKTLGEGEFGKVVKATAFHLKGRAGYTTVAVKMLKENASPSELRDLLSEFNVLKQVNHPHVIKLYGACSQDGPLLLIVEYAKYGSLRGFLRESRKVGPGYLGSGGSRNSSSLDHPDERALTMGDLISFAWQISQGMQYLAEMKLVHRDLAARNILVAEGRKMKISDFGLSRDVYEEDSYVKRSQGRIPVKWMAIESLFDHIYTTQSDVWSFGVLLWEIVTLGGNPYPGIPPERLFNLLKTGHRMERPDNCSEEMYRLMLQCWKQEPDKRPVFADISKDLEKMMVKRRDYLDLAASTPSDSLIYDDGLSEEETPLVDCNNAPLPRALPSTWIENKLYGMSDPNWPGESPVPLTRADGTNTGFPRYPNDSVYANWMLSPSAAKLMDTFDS
T2 sequence (P07949 29-1114 V804M): as the sequence (P07949 29-1114) above, with V776M counted along it

Row | Molecule | IC50 (Ret wt) | IC50 (RET (V804M)) | IC50 (TT Cell; Homo sapiens, TT) | inhibitory activity against RET wild-type, mutant and/or fusion-type [1] | IC50 (TT Cell)
1 | Cc1ccnc(CN2CCN(c3ccc(-c4cc(-c5cnn(C)c5)cn5nc(N)c(C#N)c45)cn3)CC2)c1 [APS025] | 0.0014 µM |  | 0.0382 µM | excellent activity | 
2 | Cn1cc(-c2cc(-c3ccc(N4CCN(Cc5cc(F)ccc5F)CC4)nc3)c3c(C#N)c(N)nn3c2)cn1 [APS020] | 0.0011 µM |  | 0.0143 µM | excellent activity | 
3 | Cn1cc(-c2cc(-c3ccc(N4CCN(Cc5cccc(F)c5)CC4)nc3)c3c(C#N)c(N)nn3c2)cn1 [APS019] | < 0.001 µM |  | 0.0078 µM | excellent activity | 
4 | Cn1cc(-c2cc(-c3ccc(N4CCN(Cc5cncc(F)c5)CC4)nc3)c3c(C#N)c(N)nn3c2)cn1 [APS014] | 0.001 µM |  | 0.0446 µM | excellent activity | 
5 | Cc1cccnc1CN1CCN(c2ccc(-c3cc(-c4cnn(C)c4)cn4nc(N)c(C#N)c34)cn2)CC1 [APS022] | 0.0022 µM |  | 0.0455 µM | excellent activity | 
6 | COc1ccc(CN2CCN(c3ccc(-c4cc(-c5cnn(C)c5)cn5nc(N)c(C#N)c45)cn3)CC2)cn1 [APS068, 2-amino-4-(6-(4-((6-methoxypyridin-3-yl)methyl)piperazin-1-yl)pyridin-3-yl)-6-(1-methyl-1H-pyrazol-4-yl)pyrazolo[1,5-a]pyridine-3-carbonitrile] |  |  | 0.0113 µM | excellent activity | 
7 | CCOc1cc(-c2ccc(N3CCN(Cc4ccc(OC)nc4)CC3)nc2)c2c(C#N)c(N)nn2c1 [APS099] |  |  | 0.0162 µM | excellent activity | 
8 | CCOc1cc(-c2ccc(N3CC4CC(C3)N4Cc3cncc(F)c3)nc2)c2c(C#N)c(N)nn2c1 [APS111, 2-amino-6-ethoxy-4-(6-(6-((5-fluoropyridin-3-yl)methyl)-3,6-diazabicyclo[3.1.1]heptane-3-yl)pyridin-3-yl)pyrazolo[1,5-a]pyridine-3-carbonitrile] |  |  | 0.0064 µM | excellent activity | 
9 | Cn1cc(-c2cc(-c3ccc(N4CC5CC(C4)N5Cc4ccccn4)nc3)c3c(C#N)c(N)nn3c2)cn1 [APS038, 2-amino-6-(1-methyl-1H-pyrazol-4-yl)-4-(6-(6-(pyridin-2-yl-methyl)-3,6-diazabicyclo[3.1.1]heptan-3-yl)pyridin-3-yl)pyrazolo[1,5-a]pyridine-3-carbonitrile] | 0.001 µM |  | 0.0377 µM | excellent activity | 
10 | COCCOc1cc(-c2ccc(N3CCN(Cc4ccc(OC)nc4)CC3)nc2)c2c(C#N)c(N)nn2c1 [APS100, 2-amino-6-(2-methoxyethoxy)-4-(6-(4-((6-methoxypyridin-3-yl)methyl)piperazin-1-yl)pyridine-3-yl)pyrazolo[1,5-a]pyridine-3-carbonitrile] |  |  | 0.0224 µM | excellent activity | 
11 | Cn1cc(-c2cc(-c3ccc(N4CCN(Cc5c(F)cccc5F)CC4)nc3)c3c(C#N)c(N)nn3c2)cn1 [APS024, 2-amino-4-(6-(4-(2,6-difluorobenzyl)piperazin-1-yl)pyridin-3-yl)-6-(1-methyl-1H-pyrazole-4-yl)pyrazolo[1,5-a]pyridine-3-carbonitrile] | 0.001 µM |  | 0.0071 µM | excellent activity | 
12 | COc1ccc(CN2C3CC2CN(c2ccc(-c4cc(OCCOC(C)C)cn5nc(N)c(C#N)c45)cn2)C3)cn1 [APS120, 2-amino-6-(2-isopropoxyethoxy)-4-(6-(6-((6-methoxypyridin-3-yl)methyl)-3,6-diazabicyclo [3.1.1]heptan-3-yl)pyridin-3-yl)pyrazolo[1,5-a]pyridine-3-carbonitrile] |  |  | 0.0169 µM | excellent activity | 
13 | 2-amino-4-(6-(4-((2-fluorobenzyl)piperazine-6-(1-methyl-1H-pyrazol-4-yl)pyrazolo[1,5-a]pyridine-3-carbonitrile [APS015] | 0.0017 µM |  |  | excellent activity | 0.0277 µM

The next lines start with results.

Row | IC50 (Ret wt) | IC50 (RET (V804M)) | Molecule | IC50 (TT Cell; Homo sapiens, TT) | inhibitory activity against RET wild-type, mutant and/or fusion-type [1] | IC50 (TT Cell)
14 | 0.942 µM | 0.493 µM | COc1ccc(CN2C3CC2CN(c2ccc(-c4cc(OCC(C)(C)O)cn5nc(NCCO)c(C#N)c45)cn2)C3)cn1 [APS094, 6-(2-Hydroxy-2-methylpropoxy)-2-((2-2-hydroxyethyl)amino)-4-(6-(6-((6-methoxypyridine-3-yl)methyl)-3,6-diazabicyclo[3.1.1]heptan-3-yl)pyridin-3-yl)pyrazolo[1,5-a]pyridine-3-carbonitrile] |  |  | 
15 | 0.144 µM | 0.0856 µM | COCCOc1cc(-c2ccc(N3CC4CC(C3)N4Cc3ccc(OC)nc3)nc2)c2c(C#N)c(F)nn2c1 [APS098, 2-fluoro-6-(2-methoxyethoxy)-4-(6-(6-((6-methoxypyridin-3-yl)methyl)-3,6-diazabicyclo [3.1.1]heptan-3-yl)pyridin-3-yl)pyrazolo[1,5-a]pyridine-3-carbonitrile] |  |  | 
16 | 0.261 µM | 0.155 µM | COCCOc1cc(-c2ccc(N3CC4CC(C3)N4Cc3ccc(OC)nc3)nc2)c2c(C#N)c(NC(C)=O)nn2c1 [APS103] |  |  | 
17 |  | 0.957 µM | COc1ccc(CN2C3CC2CN(c2ccc(-c4cc(OCC(C)(C)O)cn5nc(OC)c(C#N)c45)cn2)C3)cn1 [APS091, 6-(2-hydroxy-2-methylpropoxy)-2-methoxy-4-(6-(6-((6-methoxypyridin-3-yl)methyl)-3,6-diazabicyclo[3.1.1]heptan-3-yl)pyridin-3-yl)pyrazolo[1,5-a]pyridine-3-carbonitrile] |  |  | 
18 | 0.0017 µM |  | Cn1cc(-c2cc(-c3ccc(N4CCN(Cc5ccccn5)CC4)nc3)c3c(C#N)c(N)nn3c2)cn1 [APS035, 2-amino-6-(1-methyl-1H-pyrazol-4-yl)-4-(6-(4-(4-(pyridin-2-yl)methyl)piperazin-1-yl)pyridin-3-yl)pyrazolo[1,5-a]pyridine-3-carbonitrile] | 0.0654 µM | excellent activity | 
19 | 0.0024 µM |  | Cn1cc(-c2cc(-c3ccc(N4CCN(Cc5ccccc5Cl)CC4)nc3)c3c(C#N)c(N)nn3c2)cn1 [APS027, 2-amino-4-(6-(4-(2-chlorobenzyl)piperazin-1-yl)pyridin-3-yl)-6-(1-methyl-1H-pyrazol-4-yl) pyrazolo[1,5-a]pyridine-3-carbonitrile] | 0.0857 µM | excellent activity | 
20 | 0.0014 µM |  | COc1cccc(CN2CCN(c3ccc(-c4cc(-c5cnn(C)c5)cn5nc(N)c(C#N)c45)cn3)CC2)c1 [APS026, 2-amino-4-(6-(4-(3-methoxybenzyl)piperazin-1-yl)pyridin-3-yl)-6-(1-methyl-1H-pyrazole-4-yl)pyrazolo[1,5-a]pyridine-3-carbonitrile] | 0.0181 µM | excellent activity | 
